Laboratory results published in patent US20250009716A1, “NOVEL INHIBITORS OF CLAUDIN-1 FOR THERAPEUTIC INTERVENTIONS” (BOARD OF REGENTS OF THE UNIVERSITY OF NEBRASKA, priority 2021, published 2025).
Entries after “also recorded” stand apart in the source; their conditions may differ.

Legend:
[1] = Tissue distribution after i.v. dose; assay type: in vivo, mice
Experimental: To determine the in vivo characteristics of this drug, a pharmacokinetic and tissue distribution study on 16 was performed. Following a single i.v. dose of 16 (1 mg/kg) in mice (C57B/16; n=5), serial blood samples were obtained at 0.08, 0.25, 0.75, 2, 4, 6, 8 and 24 hours after the injection and plasma samples were analyzed for 16 concentrations. Pharmacokinetic parameter values were obtained from the plasma concentration-time data using standard non-compartmental methods (WinNonlin, PharSight Corp). […] To assess the tissue distribution of 16, mice were sacrificed at 2, 8 and 24 hours after the i.v. administration of the drug. Measurable concentrations of 16 were detected in all studied tissues at 2, 8, and 24 h. […] Next, metabolic stability studies of 16 was evaluated using mouse liver S9 fractions for the in vitro assessment of phase I and II metabolism. […] Testosterone, 7-HC and diclofenac were used as positive controls, ensuring proper incubation conditions were maintained. […] The results of these in vitro drug metabolism studies guided the rational development of 16 structural analogs.
Eight-week-old healthy Balb/c mice (male and female) mice were utilized for the pharmacokinetic and biodistribution studies. In this section, up to two different administration routes (oral or IP) were evaluated for each selected drug product. The specified drug and dose were administered to a 25 g mouse. A total of 36 mice were used for each compound tested. Blood was collected by cheek bleeding at selected times between 0-168 h post-injection. Liver, spleen, kidney, brain and bone marrow were harvested at terminal time points (2, 8, 24, 48, 72 h). Tissue samples were collected and processed for bioanalysis. The drug concentration in blood and tissues was measured by LC-MS/MS using methods developed during preliminary studies and validated according to FDA guidance. Drug accumulation in tissue was assessed by calculating a tissue to plasma concentration ratio (Kp), an indicator of drug accumulation (FIGS. 6A, 6B, 7, and 38).

[2] = tested on: Claudin-1 deficient HCT116 cells; test: Resistance to anoikis in claudin-1 deficient cells (negative control); assay type: cell-based
Source text: The crystal structure of claudin-1 is unknown. Therefore, an in-silico protein folding program, YASARA, was used to identify an effective claudin-1 inhibitor. The resultant 3D-structure was then modeled using Molegro Virtual Docker (MVD) software program. These in-silico analyses identified putative cavities in the claudin-1 protein that can be targeted by small molecule inhibitors. Next, a 100K library of small molecules was screened in silico using the MVD. The top 10 inhibitors that bound to the Site #3 (targeting near c-terminal domain; the most accessible pocket; FIG. 2A) with the best binding energies were selected as hits and used for further testing. Screening of these inhibitors named Inihibitor-1 (1-1) to Inhibitor-10 (I-10) was done using SW480claudin-1, SW620 and control cells. Claudin-1 deficient HCT116 cells (WT-APC) or SW620shRNAcld-1 were used as negative controls. Resistance to anoikis and cell invasion was used as biological end-points in testing these inhibitors. […]

[3] = Cell survival assay of three inhibitors (FIG. 2B); assay type: cell-based
Experimental: (A) In-silico 3D-structure of claudin-1, cavities that can be targeted by small molecules were defined using Molegro Virtual Docker. (B) Cell survival assay showing effects of three different inhibitors (I1, I2 and 16). […] (C) Effect of 16 treatment (72 hours) upon resistance to anoikis in claudin-1 overexpressing SW480 cells and claudin-1 deficient HCT116 cells. (D) Effect of 16 treatment on cell invasion in SW480claudin-1 cells. (E) Effect of inhibitor 16 on xenograft tumors. Tumors were induced for two weeks after which 16 was injected i.p (10 mg/kg). Effect on tumor growth was monitored.

[4] = tested on: p-Src and p-EphA2 in SW480claudin-1 cells; test: Phosphorylation of Src and EphA2 versus dasatinib; assay type: cell-based
Experimental: Effects on (A) phosphorylation of Src and EphA2 and (B) cell survival (MTT assay) were determined.

SW480claudin-1 cells [5] = test: Cell survival (MTT assay) versus dasatinib; assay type: cell-based
Experimental: Effects on (A) phosphorylation of Src and EphA2 and (B) cell survival (MTT assay) were determined. Significant changes are boxed.

SW480claudin-1 cells [6] = test: Soft agar colony formation assay; assay type: cell-based
Source text: (§1) To this end, a library of molecules was synthesized in order to develop an initial SAR evaluation. The first compounds tested eliminated the acylated (thio) urea as well as the napthyl group and evaluated just the urea/phenyl compounds (Compounds 1-6). The methoxy group of the naphthalene ring system was needed when the benzimidazole group was present (16 vs. Compound 8). […] The result of metabolic stability was expressed as the percentage of drug remaining at each time. […] To further determine the effect of PDS-0330 on p-Src expression and association, cells were treated with Compound 1, 16 and PDS-0330. Expression and association with p-Src was unaffected with Compound 1 (negative control). The specificity of PDS-0330 for CLDN1 was further confirmed by treating SW480^CLDN1, HCT116^CLDN2 (overexpressing another tight junction protein) or normal IEC-6 cells with PDS-0330 (FIG. 12).

HCT116CLDN2 cells = test: Cell viability, specificity for CLDN1; assay type: cell-based; details: cells overexpressing another tight junction protein
Experimental: (§2) SW480^claudin-1, IEC-6 (normal cells), and HCT116^CLDN2 cells were treated with different concentrations of PDS-0330 and cell viability was determined.
as §1

SW480CLDN1 cells = test: Cell viability, specificity for CLDN1; assay type: cell-based
Experimental: as §2, §1

IEC-6 (normal cells) = test: Cell viability, specificity for CLDN1; assay type: cell-based
Experimental: as §2, §1

[7] = tested on: SW620 cells xenograft tumors; test: SW620 xenograft tumors; assay type: in vivo, athymic mice
Experimental: SW620 cells were injected into dorsal flanks of athymic mice to form xenograft tumors. PDS-0330 was injected (5 and 10 mg/kg) when tumors became palpable. Effect on tumor volume and size was determined in time-dependent manner.
The development of flank xenograft tumors in claudin-1 overexpressed SW620 cells injected nude mice was examined between vehicle and PDS-0330 (5 mg/kg and 10 mg/kg) treatment (n=5 mice per group). Representative images of tumor containing mice from the vehicle and PDS-0330 (10 mg/kg).

Row | Compound | descending order of Kp ratios ([1]; 1 mg/kg i.v.) | tissue concentrations ([1]; 2, 8 and 24 h after 1 mg/kg i.v.) | Kp ([1]; C57B/16, mouse, iv, all tissues except brain, 1 mg/kg i.v., read-out: tissue to plasma concentration ratio (Kp)) | effect on HCT116 cells [2] | effect on cell survival, compared among I1, I2 and 16 [3] | p-EphA2 and p-Src expression [4] | percent cell survival compared with dasatinib (SW480claudin-1 cells [5]) | effect on soft agar colony formation (SW480claudin-1 cells [6]) | effect on cell viability (HCT116CLDN2 cells) | percentage of dead cells (SW480CLDN1 cells) | effect on cell viability (IEC-6 (normal cells)) | tumor size ([7]; 5 and 10 mg/kg) | tumor weight ([7]; mouse, in vivo)
1 | COc1cc2ccccc2cc1C(=O)NC(=S)Nc1ccc(-c2nc3ccccc3[nH]2)cc1 [Compound 16] | lungs>liver>spleen>kidney>heart>>brain | higher concentrations in the lung and liver tissue | ≥ 1 | remained unaffected | most effective |  |  |  |  |  |  |  | 
2 | O=C(NC(=S)Nc1ccc(-c2nc3ccccc3o2)cc1)c1ccc2ccccc2c1 [PDS-0330] |  |  |  |  |  | inhibited p-EphA2 expression along with p-Src; also recorded: more effective in inhibiting cell survival and p-EphA2 expression | significantly decreased percent cell survival more than dasatinib; also recorded: more effective in inhibiting cell survival | significantly inhibited | not affected | significant increase in the percentage of dead cells | not affected | reduces tumor size in mice | significantly inhibited tumor weight
